Columns and labels:
[1] = test system: HUVEC; assay: PrestoBlue toxicity test, normal cells HUVEC; assay type: cell-based, Human; details: 48 h
Method: (§1) Human lung cancer cells A549, NCl-H460 and 7 cancer cell lines were cultured in RPMI 1640 medium containing 10% FBS (Gibco, USA) and 1% penicillin-streptomycin. Human colon cancer cell HCT-116 cell line was cultured in McCoy's 5A medium containing 10% FBS (Gibco, USA) and 1% penicillin-streptomycin. Human leukemia cancer cell HL-60 cell line was cultured in IMDM medium containing 20% FBS (Gibco, USA) and 1% penicillin-streptomycin. Human normal cell line WI-38 was cultured in MEM containing 10% FBS (Gibco, USA), 1% penicillin-streptomycin, and 1% Non-Essential Amin Acids solution. Human normal cell line HUVEC cultured in Human Endothelial Growth Medium containing. All the cells were cultured in sterilized cell culture plastic dishes or 96-well plastic plates in a humidified incubator filled with 95% air and 5% CO2 gas and maintained at a temperature of 37° C.
(§2) First, the cells are seeded in a 96-well plate (Nunc, 165305) at a volume of 100 μl, and then cultured in an incubator overnight to confirm that they grow well on the plate. Depending on the concentration of the drugs, each well is treated with 100 μl of the compound and then incubated to allow cells and compounds to react for 48 hrs. PrestoBlue Cell Viability Reagent (Invitrogen, A13262) was added to the compound-treated well, and then the plates were incubated in a humidified incubator at 37° C. for 30 mins. Each well was measured at a fluorescence detected with the wavelength of an excitation of 560 nm and an emission of 590 nm using by microplate reader (BioTek, Synergy H1). The IC50 value is calculated by using the Gen5 software.

[2] = test system: A549; assay: PrestoBlue cell viability, A549; assay type: cell-based, Human
Method: as §1, §2

[3] = test system: MDA-MB-231; assay: PrestoBlue cell viability, MDA-MB-231; assay type: cell-based; details: Homo sapiens; breast, MDA-MB-231, 48 h
Method: as §1, §2

[4] = test system: WI-26; assay: PrestoBlue toxicity test, normal cells WI-26; assay type: cell-based, Human; details: WI-26, 48 h
[5] = test system: HL-60; assay: PrestoBlue cell viability, HL-60; assay type: cell-based, Human; details: HL-60, 48 h, leukemia
Method: as §1, §2

[6] = test system: H460; assay: PrestoBlue cell viability, H460; assay type: cell-based, Human; details: lung
Method: as §1, §2

[7] = test system: HCT-116; assay: PrestoBlue cell viability, HCT-116; assay type: cell-based; details: Homo sapiens; colon, HCF116 (HCT-116), 48 h
Method: as §1, §2

[8] = test system: WI-38; assay: PrestoBlue toxicity test, normal cells WI-38; assay type: cell-based, Human; details: WI-38, 48 h
Method: as §1, §2

[9] = test system: HCC827; assay: PrestoBlue cell viability, HCC827; assay type: cell-based; details: Homo sapiens; lung, HCC827, 48 h
Method: as §1, §2

[10] = test system: MCF-7; assay: PrestoBlue cell viability, MCF-7; assay type: cell-based; details: Homo sapiens, MCF7; breast, MCF-7, 48 h
Method: as §1, §2

[11] = test system: H1975; assay: PrestoBlue cell viability, H1975; assay type: cell-based; details: Homo sapiens, NCI-H1975; lung, H1975, 48 h
Method: as §1, §2

[12] = test system: BxPC-3; assay: PrestoBlue cell viability, BxPC-3; assay type: cell-based; details: Homo sapiens; pancreas, BxPC-3, 48 h
Method: as §1, §2

[13] = test system: H1650; assay: PrestoBlue cell viability, H1650; assay type: cell-based; details: Homo sapiens, NCI-H1650; lung, H1650, 48 h
Method: as §1, §2

[14] = test system: H146; assay: PrestoBlue cell viability, H146; assay type: cell-based; details: Homo sapiens, NCI-H146; lung, H146, 48 h
Method: as §1, §2

[15] = test system: H1299; assay: PrestoBlue cell viability, H1299; assay type: cell-based; details: Homo sapiens, NCI-H1299; lung, H1299, 48 h
Method: as §1, §2

[16] = test system: CFPAC-1; assay: PrestoBlue cell viability, CFPAC-1; assay type: cell-based; details: Homo sapiens; pancreas, CFPAC-1, 48 h
Method: as §1, §2

[17] = test system: K562; assay: PrestoBlue cell viability, K562; assay type: cell-based, Human; details: for IC50: Homo sapiens, leukemia, K562, 48 h
Method: as §1, §2

[18] = Homo sapiens, NCI-H460, H460, 48 h

SMILES	IC50 [1]	IC50 ([1]; Homo sapiens)	IC50 ([2]; Homo sapiens, A549, 48 h, lung)	IC50 ([2]; lung, A549, 48 h)	IC50 [3]	IC50 ([4]; Homo sapiens, 48 h)	IC50 ([5]; Homo sapiens)	IC50 ([6]; Homo sapiens, NCI-H460, 48 h)	IC50 [7]	IC50 ([8]; Homo sapiens)	IC50 [8]	IC50 [9]	IC50 [10]	IC50 [11]	IC50 [12]	IC50 [13]	IC50 [14]	IC50 [15]	IC50 [16]	IC50 [17]	also measured
COc1cc([C@@H]2C3=C(COC3=O)Cc3cc4c(cc32)OCO4)cc(OC)c1OCc1ccc(C(F)(F)F)cc1 [example 7, (5S)-5-[3,5-Dimethoxy-4-(4-trifluoromethyl-benzyloxy)-phenyl]-5,9-dihydro-8H-furo[3′,4′:6,7]naphtho[2,3-d][1,3]dioxol-6-one]	> 50 µM	≥ 50 µM	≥ 50000 nM	> 50000 nM	> 50 µM	≥ 50 µM	> 50000 nM	≥ 50000 nM	> 50000 nM	≥ 50 µM	> 50 µM	–	–	–	–	–	–	–	–	–	IC50 ([6]; H460, 48 h): > 50000 nM
COc1cc([C@@H]2C3=C(COC3=O)Cc3cc4c(cc32)OCO4)cc(OC)c1OCc1ccc(C)cc1 [example 8, (5S)-5-[3,5-Dimethoxy-4-(4-methyl-benzyloxy)-phenyl]-5,9-dihydro-8H-furo[3′,4′:6,7]naphtho[2,3-d][1,3]dioxol-6-one]	> 50 µM	≥ 50 µM	≥ 50000 nM	> 50000 nM	> 50 µM	≥ 50 µM	> 50000 nM	≥ 50000 nM	> 50000 nM	≥ 50 µM	> 50 µM	–	–	–	–	–	–	–	–	–	IC50 ([6]; H460, 48 h): > 50000 nM
COc1cc([C@@H]2c3cc4c(cc3[C@@H](O[C@@H]3O[C@@H]5CO[C@@H](C)O[C@H]5[C@H](O)[C@H]3O)[C@H]3COC(=O)[C@H]23)OCO4)cc(OC)c1O [Etoposide, reference compound]	–	> 50 µM	–	–	> 50 µM	–	2430 nM	–	7290 nM	> 50 µM	–	> 50 µM	> 50 µM	> 50 µM	> 50 µM	> 50 µM	> 50 µM	40.1 µM	42 µM	–	IC50 ([2]; Homo sapiens; lung, A549, 48 h): 2160 nM; IC50 [6, 18]: 971 nM
C=CCCOc1c(OC)cc([C@@H]2C3=C(COC3=O)Cc3cc4c(cc32)OCO4)cc1OC [example 5, (5S)-5-(4-But-3-enyloxy-3,5-dimethoxy-phenyl)-5,9-dihydro-8H-furo[3′,4′:6,7]naphtho[2,3-d][1,3]dioxol-6-one]	> 50 µM	≥ 50 µM	≥ 50000 nM	> 50000 nM	> 50 µM	≥ 50 µM	> 50000 nM	≥ 50000 nM	> 50000 nM	≥ 50 µM	> 50 µM	–	–	–	–	–	–	–	–	–	IC50 ([6]; H460, 48 h): > 50000 nM
COc1cc([C@@H]2C3=C(COC3=O)Cc3cc4c(cc32)OCO4)cc(OC)c1OCc1ccc(F)cc1 [example 6, (5S)-5-[3,5-Dimethoxy-4-(4-fluorobenzyloxy)-phenyl]-5,9-dihydro-8H-furo[3′,4′:6,7]naphtho[2,3-d][1,3]dioxol-6-one]	> 50 µM	≥ 50 µM	288 nM	–	> 50 µM	≥ 50 µM	> 50000 nM	437 nM	> 50000 nM	≥ 50 µM	> 50 µM	–	–	–	–	–	–	–	–	247 nM	effects against the blood cancer cell line K562 (in words) [17]: particularly excellent effects
COc1cc([C@@H]2C3=C(COC3=O)Cc3cc4c(cc32)OCO4)cc(OC)c1OCc1ccccc1 [example 3, (5S)-5-(4-Benzyloxy-3,5-dimethoxy-phenyl)-5,9-dihydro-8H-furo[3′,4′:6,7]naphtho[2,3-d][1,3]dioxol-6-one]	> 50 µM	≥ 50 µM	–	–	> 50 µM	≥ 50 µM	–	–	234 nM	≥ 50 µM	> 50 µM	> 50 µM	> 50 µM	> 50 µM	> 50 µM	> 50 µM	> 50 µM	> 50 µM	> 50 µM	> 50000 nM	IC50 ([2]; Homo sapiens; lung, A549, 48 h): 127 nM; IC50 [4]: > 50 µM; IC50 [5]: 181 nM; IC50 [6, 18]: 174 nM
COc1cc([C@@H]2C3=C(COC3=O)Cc3cc4c(cc32)OCO4)cc(OC)c1OCC1CCCCC1 [example 4, (5S)-5-(4-Cyclohexylmethoxy-3,5-dimethoxy-phenyl)-5,9-dihydro-8H-furo[3′,4′:6,7]naphtho[2,3-d][1,3]dioxol-6-one]	> 50 µM	≥ 50 µM	698 nM	–	> 50 µM	≥ 50 µM	> 50000 nM	796 nM	1570 nM	≥ 50 µM	> 50 µM	–	–	–	–	–	–	–	–	398 nM	effects against the blood cancer cell line K562 (in words) [17]: particularly excellent effects
COc1cc([C@@H]2C3=C(COC3=O)Cc3cc4c(cc32)OCO4)cc(OC)c1OC(C)=O [example 1, Acetic acid (5S)-2,6-dimethoxy-4-(6-oxo-5,6,8,9-tetrahydrofuro[3′,4′:6,7]naphtho[2,3-d][1,3]dioxol-5-yl)-phenyl ester]	> 50 µM	≥ 50 µM	65 nM	–	> 50 µM	≥ 50 µM	–	60 nM	129 nM	≥ 50 µM	> 50 µM	> 50 µM	> 50 µM	> 50 µM	> 50 µM	> 50 µM	> 50 µM	> 50 µM	> 50 µM	> 50000 nM	IC50 [4]: > 50 µM; IC50 [5]: 30 nM
COc1cc([C@@H]2C3=C(COC3=O)Cc3cc4c(cc32)OCO4)cc(OC)c1OC(=O)c1ccccc1 [example 2, Benzoic acid (5S)-2,6-dimethoxy-4-(6-oxo-5,6,8,9-tetrahydrofuro[3′,4′:6,7]naphtho[2,3-d][1,3]dioxol-5-yl)-phenyl ester]	> 50 µM	≥ 50 µM	202 nM	–	> 50 µM	≥ 50 µM	–	134 nM	1390 nM	≥ 50 µM	> 50 µM	> 50 µM	> 50 µM	> 50 µM	> 50 µM	> 50 µM	> 50 µM	> 50 µM	> 50 µM	> 50000 nM	IC50 [4]: > 50 µM; IC50 [5]: 250 nM

From patent publication US11407761B2, “Derivative of β-apopicropodophyllin and method of preparing thereof” (J&C Sciences, priority 2020, dated 2022)
